Laboratory results as given in patent US20260355176A1 (NICOVENTURES TRADING LIMITED, priority 2019, published 2026).
Entries after “also recorded” stand apart in the source; their conditions may differ.

Key:
[1] = Nicotine and benzoic acid octanol-water partitioning in unbuffered water; format: physicochemical
Protocol: The mobile phase was brought to pH 2.5 with H3PO4. The flow rate of the mobile phase was 1 mL/min, and the injection volume was 10 μL.

[2] = Nicotine octanol-water partitioning with various ion pairing agents and quantities (benzoate, octanoate, decanoate); format: physicochemical; conditions: pH 6.5, 1,000 ppm nicotine
Protocol: A pH probe was submerged in the resulting liquid and HCl (0.05 M) was added under stirring to bring the solution to pH 6.5. The flask weight was then brought up to 100 grams with RO water. […] Partitioning was performed by removing aliquots (10 mL) of each solution and placing into separate 20 ml scintillation vials. Octanol (10 ml) was added to each vial. The vials were then placed on a wrist action shaker for 20 minutes. Following agitation, the vials were allowed to separate for 30 min, and an aliquot (100 μl) of each octanol layer was removed and diluted with 900 μl octanol in 2 mL GC/MS vials.

With `O=C(O)c1ccccc1` [benzoic acid] the concentration in octanol ([1]; 1000 ppm nicotine, 1 molar equivalent sodium benzoate, unbuffered water) was 19.2 ppm and the “benzoic acid molarity in octanol in terms of nicotine mass” value ([1]; calculated as ppm nicotine) was 25.5 ppm.

In the case of `CCCCCCCCCC(=O)O` [decanoic acid], the “octanol-water partitioning, in words” value [2] is reported as “prone to becoming soapy during the vigorous mixing; also recorded: partition into octanol to an extent less than that expected by theory”.

For `CN1CCCC1c1cccnc1` (centres unmarked) [nicotine, reference compound], the “% nicotine in octanol (FIG. 6)” value ([2]; 10 eq. octanoic acid) was ~ 75% and the “% nicotine in octanol (FIG. 6)” value ([2]; benzoic acid at same concentration (10 eq.)) was ~ 52%.
